From PubChem BioAssay (NCI)
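Grown in 96-well plates, cells were treated for 48 hours with each compound at five concentrations. Insufficient inhibition: endpoint recorded as highest concentration tested. At the GI50, growth is halved. The concentration for full growth arrest is given as TGI.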

Experiments:
Assay in all cases: growth of human tumour cells (NCI), 48 h
[1] = tested on: U251 CNS
[2] = tested on: SF-268 CNS
[3] = tested on: COLO 205 colon
[4] = tested on: HOP-92 NSCLC
[5] = tested on: OVCAR-8 ovarian
[6] = tested on: HOP-62 NSCLC
[7] = tested on: CCRF-CEM leukemia
[8] = tested on: CAKI-1 renal
[9] = tested on: MDA-MB-435
[10] = tested on: T-47D breast

Row | SMILES | TGI [1] [µM] | TGI [2] [µM] | TGI [3] [µM] | TGI [4] [µM] | TGI [5] [µM] | TGI [6] [µM] | TGI [7] [µM] | TGI [8] [µM] | GI50 [1] [µM] | GI50 [2] [µM] | GI50 [3] [µM] | GI50 [9] [µM] | TGI [9] [µM] | GI50 [4] [µM] | GI50 [5] [µM] | GI50 [10] [µM] | TGI [10] [µM] | GI50 [6] [µM] | GI50 [7] [µM] | GI50 [8] [µM]
1 | COC(=O)C1(O)c2ccccc2N=C2C1CCN2C (stereo not drawn) | > 100 | > 100 | > 100 | > 100 | > 100 | > 100 | > 100 | > 100 |  |  |  |  |  |  |  |  |  |  |  | 
2 | CNCCN(C)Cc1cn[nH]c1-c1ccc(OC2CC(OCCC3CCOCC3)C2)cc1 (stereo not drawn) | > 100 | > 100 | 85.7 | > 50.8 | > 100 | > 100 | > 100 |  | 55.2 | > 100 | 21.2 | > 100 | > 100 | 1.43 | > 100 | 27.8 | > 100 | 99.1 | > 100 | 
3 | O=C(CSc1ncc(-c2ccccc2)n1-c1ccccc1)Nc1ccc(-c2nc3ccccc3s2)cc1 | 5.56 | > 100 | > 100 | 83.1 |  | > 100 | > 100 | > 100 | 2.42 | 3.5 | > 100 |  |  | 22.6 |  | 4.51 | > 100 | 5.68 | > 100 | 4.21
4 | CCCc1n(Cc2ccc3ccccc3n2)cc[n+]1Cc1ccc2ccccc2n1 | 12.3 | 14.2 | 2.21 | 4.18 | 12.3 | 17.9 | 28.3 |  | 1.51 | 2.3 | 0.633 | 1.13 | 11.9 | 0.56 | 3.16 | 0.416 | 5.03 | 4.17 | 2.72 | 
5 | CC1(C)CC(N2CCN(C3CC(C)(C)NC(C)(C)C3)CC2)CC(C)(C)N1 | > 100 | > 100 |  | > 100 | > 100 | > 100 | > 100 | > 100 |  |  |  |  |  |  |  |  |  |  |  | 
6 | CCCCCCSc1nc(COC(=O)NC)c(COC(=O)NC)n1C | > 100 | > 100 | > 100 |  | > 100 | > 100 | > 100 | > 100 |  |  |  |  | > 100 |  |  |  | > 100 |  |  | 
7 | COC(=O)C1=C(\O)C[C@@]2(C)CC[C@@H](C(=O)OC)C2C/C=C\1C(=O)OC (stereo partly drawn) | > 100 | > 100 | > 100 | > 100 | > 100 | > 100 | > 100 | > 100 |  |  |  |  |  |  |  |  |  |  |  | 
8 | Cc1cn2c(/C=C3/C(=O)Nc4ccc(Cl)cc43)c(C)nc2s1 | 28.7 | > 100 |  | 70.1 | 32.7 | 18.3 |  |  | < 0.0235 | 12.5 |  | 2.12 | 5.41 | 16 | 2.75 | 4.09 | > 75 | 0.214 |  | 0.741
9 | CCCCCCCCCCCC(=O)OC(COC(N)=O)COc1ccc(Cl)cc1 (stereo not drawn) | 52.7 | 42.5 | 37.5 |  | 33.6 | > 100 | 35.9 | 44.3 |  |  |  |  |  |  |  |  |  |  |  | 
10 | Cc1ccc(NC(=O)C(=O)CC(=O)c2ccccc2)cc1C | > 100 | > 100 | > 100 | > 100 | > 100 | > 100 |  | > 100 |  |  |  |  |  |  |  |  |  |  |  | 
